What was measured:
[1] = tested on: Myzus persicae; experiment: Myzus-test (oral); format: in vivo; conditions: oral (suction)
Method: (§1) To produce a suitable preparation of active compound, 1 part by weight of active compound is mixed with the stated amount of solvent and emulsifier, and the concentrate is diluted with emulsifier-containing water to the desired concentration.
Hollow-ware are located with all instars of the green peach aphid (Myzus persicae). The treatement is carried out by suction of the preparation of active compound of the desired concentration.
(§2) After the specified period of time, mortality in % is determined. 100 % means that all aphids have been killed; o % means that none of the […] have been killed.

[2] = tested on: Tetranychus urticae; experiment: Tetranychus-test, OP-resistant (spray application); format: in vivo; conditions: spray on French bean
Method: Tetranychus-test, OP-resistant (spray application)
as §1
French bean (Phaseolus vulgaris) which are heavily infested with all stages of the two spotted spidermite (Tetranychus urticae), are sprayed with a preparation of the active ingredient at the desired concentration.
(§3) After the specified period of time, mortality in % is determined. 100 % means that all spider mites have been killed; o % means that none of the […] have been killed.

[3] = logP determination (PhysData, logP^1); conditions: for logP^1: stated in preparation examples; for PhysData (logP (HCOOH)): HPLC gradient method, acetonitrile/0.1% HCOOH, EEC-Directive 79/831, Annex V.A8
[4] = tested on: Myzus persicae; experiment: Myzus persicae-test (Spray application); format: in vivo; conditions: application rate of 500 g/ha; spray on Chinese cabbage leaf-disks, all instars
Method: Myzus persicae-test (Spray application)
as §1
Chinese cabbage (Brassica pekinensis) leaf-disks infected with all instars of the green peach aphid (Myzus persicae), are sprayed with a preparation of the active ingredient at the desired concentration.
as §2

[5] = physchem
[6] = tested on: Boophilus microplus; experiment: Boophilus microplus-test (injection); format: in vivo; conditions: application rate of 20 µg/animal; injection in the abdomen
Method: Boophilus microplus-test (injektion)
as §1
The solution of the active compound is injected in the abdomen (Boophilus microplus); the animals are transferred into a cup and stayed in a rooming with an air condition.
After the specified period of time, the efficiany mortality in % is determined. 100 % means that no tick has lay fertile eggs.

[7] = tested on: Phaedon cochleariae; experiment: Phaedon-test (spray application); format: in vivo; conditions: application rate of 500 g/ha; spray on Chinese cabbage leaf-disks, larvae
Method: Phaedon-test (spray application)
as §1
Chinese cabage (Brassica pekinesis) leafs-disks are treated by being sprayed with the preparation of the active compound of the desired concentration nd are, after drying, infested with mustard beetle larvae (Phaedon cochleariae).
as §3

[8] = Table I-1, cells marked (A) are 1H-NMR, not logP

c1ccc2c(c1)CC(N=C1NCCO1)C2 [1-1, 2-[2-(2,3-dihydro-1H-inden)-amino]-4,5-dihydrooxazole]
activity (mortality in %) ([1]; application rate of 20 ppm): ≥ 80%
activity (mortality in %) ([2]; application rate of 100 g/ha): ≥ 80%
PhysData (logP^1) [3, 8]: 0.81
activity (mortality in %) [4]: ≥ 80%

CNC(=S)N1CCOC1=NC1Cc2ccccc2C1 [1-2]
activity (mortality in %) ([1]; application rate of 20 ppm): ≥ 80%
PhysData (logP^1) [3, 8]: 2.36
logP^1 [3]: 2.36
activity (mortality in %) [4]: ≥ 80%

CCNC(=S)N1CCOC1=NC1Cc2ccccc2C1 [1-5]
PhysData (logP^1) [3, 8]: 3.46
activity (mortality in %) [4]: ≥ 80%

FC(F)(F)CNC(=S)N1CCOC1=NC1Cc2ccccc2C1 [1-6]
PhysData (logP^1) [3, 8]: 4.28
activity (mortality in %) [4]: ≥ 80%

COCCNC(=S)N1CCOC1=NC1Cc2ccccc2C1 [1-7]
chromatographic logP [5]: 3.25
efficiency (100 % means that no tick has lay fertile eggs) [6]: ≥ 80%
activity (mortality in %) ([2]; application rate of 500 g/ha): ≥ 80%
activity (mortality in %) [4]: ≥ 80%

COC(=O)CNC(=S)N1CCOC1=NC1Cc2ccccc2C1 [1-8]
activity (mortality in %) ([1]; application rate of 20 ppm): ≥ 80%
PhysData (logP^1) [3, 8]: 3.20

CC(=O)NC(=S)N1CCOC1=NC1Cc2ccccc2C1 [1-10]
PhysData (logP^1) [3, 8]: 2.53

O=C(NC(=S)N1CCOC1=NC1Cc2ccccc2C1)c1ccccc1 [1-11]
PhysData (logP^1) [3, 8]: 3.11

COC(CNC(=S)N1CCOC1=NC1Cc2ccccc2C1)OC [1-12]
chromatographic logP [5]: 3.6
activity (mortality in %) [7]: ≥ 80%
activity (mortality in %) [4]: ≥ 80%

CCCC(C)NC(=S)N1CCOC1=NC1Cc2ccccc2C1 (centres unmarked) [1-13]
chromatographic logP [5]: 5
activity (mortality in %) [7]: ≥ 80%
activity (mortality in %) [4]: ≥ 80%

CCC(CC)NC(=S)N1CCOC1=NC1Cc2ccccc2C1 [1-14]
PhysData (logP^1) [3, 8]: 4.90
activity (mortality in %) [4]: ≥ 80%

S=C(NCC1CC1)N1CCOC1=NC1Cc2ccccc2C1 [1-16]
PhysData (logP^1) [3, 8]: 3.24
activity (mortality in %) [4]: ≥ 80%

C=CCNC(=S)N1CCOC1=NC1Cc2ccccc2C1 [1-17]
PhysData (logP^1) [3, 8]: 3.75
activity (mortality in %) [4]: ≥ 80%

CCCNC(=S)N1CCOC1=NC1Cc2ccccc2C1 [1-18]
PhysData (logP^1) [3, 8]: 3.94
activity (mortality in %) [4]: ≥ 80%

CCCCNC(=S)N1CCOC1=NC1Cc2ccccc2C1 [1-19]
PhysData (logP^1) [3, 8]: 4.46
activity (mortality in %) [4]: ≥ 80%

CC(NC(=S)N1CCOC1=NC1Cc2ccccc2C1)C(F)(F)F (centres unmarked) [1-20]
PhysData (logP^1) [3, 8]: 4.62
activity (mortality in %) [4]: ≥ 80%

CC(C)CNC(=S)N1CCOC1=NC1Cc2ccccc2C1 [1-21]
PhysData (logP^1) [3, 8]: 4.51
activity (mortality in %) [4]: ≥ 80%

COC(=O)CCNC(=S)N1CCOC1=NC1Cc2ccccc2C1 [1-22]
PhysData (logP^1) [3, 8]: 3.2
activity (mortality in %) [4]: ≥ 80%

CCOC(=O)CC(C)NC(=S)N1CCOC1=NC1Cc2ccccc2C1 (centres unmarked) [1-23]
activity (mortality in %) [7]: ≥ 80%
PhysData (logP^1) [3, 8]: 4.0

COC(=O)CCCNC(=S)N1CCOC1=NC1Cc2ccccc2C1 [1-24]
PhysData (logP^1) [3, 8]: 3.6

COC(=O)C(NC(=S)N1CCOC1=NC1Cc2ccccc2C1)C(C)C (centres unmarked) [1-25]
PhysData (logP^1) [3, 8]: 4.4
activity (mortality in %) [4]: ≥ 80%

CCOC(=O)C(C)NC(=S)N1CCOC1=NC1Cc2ccccc2C1 (centres unmarked) [1-26]
PhysData (logP^1) [3, 8]: 4.2
activity (mortality in %) [4]: ≥ 80%

CCC(NC(=S)N1CCOC1=NC1Cc2ccccc2C1)C(=O)OC (centres unmarked) [1-27]
PhysData (logP^1) [3, 8]: 4.0
activity (mortality in %) [4]: ≥ 80%

S=C(NCC1CCCO1)N1CCOC1=NC1Cc2ccccc2C1 (centres unmarked) [1-28]
chromatographic logP [5]: 3.6
activity (mortality in %) [4]: ≥ 80%

FC(F)(F)C1CCC(NC(=S)N2CCOC2=NC2Cc3ccccc3C2)CC1 (centres unmarked) [1-29]
chromatographic logP [5]: 5.1

CC(C)NC(=S)N1CCOC1=NC1Cc2ccccc2C1 [1-30]
PhysData (logP^1) [3, 8]: 4.0
activity (mortality in %) [4]: ≥ 80%

S=C(NC1CC1)N1CCOC1=NC1Cc2ccccc2C1 [1-31]
PhysData (logP^1) [3, 8]: 3.5

S=C(NC1CCCC1)N1CCOC1=NC1Cc2ccccc2C1 [1-32]
chromatographic logP [5]: 4.74
activity (mortality in %) [4]: ≥ 80%

FC(F)(F)C1CCCC(NC(=S)N2CCOC2=NC2Cc3ccccc3C2)C1 (centres unmarked) [1-33]
chromatographic logP [5]: 4.7

S=C(NCc1ccccc1)N1CCOC1=NC1Cc2ccccc2C1 [1-34]
PhysData (logP^1) [3, 8]: 5.2

CC(NC(=S)N1CCOC1=NC1Cc2ccccc2C1)c1ccccc1 (centres unmarked) [1-35]
PhysData (logP^1) [3, 8]: 4.4

S=C(NCc1ccc(Cl)cc1)N1CCOC1=NC1Cc2ccccc2C1 [1-36]
chromatographic logP [5]: 4.9
activity (mortality in %) [4]: ≥ 80%

S=C(NCc1cccc(Cl)c1)N1CCOC1=NC1Cc2ccccc2C1 [1-37]
chromatographic logP [5]: 4.9
activity (mortality in %) [4]: ≥ 80%

S=C(NCc1ccccc1Cl)N1CCOC1=NC1Cc2ccccc2C1 [1-38]
chromatographic logP [5]: 4.9

S=C(NCc1ccc2c(c1)OCO2)N1CCOC1=NC1Cc2ccccc2C1 [1-39]
chromatographic logP [5]: 4.1
activity (mortality in %) [4]: ≥ 80%

S=C(NCCc1ccccc1)N1CCOC1=NC1Cc2ccccc2C1 [1-40]
PhysData (logP^1) [3, 8]: 4.6

S=C(NCCc1ccc(Cl)cc1)N1CCOC1=NC1Cc2ccccc2C1 [1-41]
chromatographic logP [5]: 5.1

S=C(NCc1cccnc1)N1CCOC1=NC1Cc2ccccc2C1 [1-42]
chromatographic logP [5]: 2
activity (mortality in %) [4]: ≥ 80%

CC(NC(=S)N1CCOC1=NC1Cc2ccccc2C1)c1ccc(Cl)cc1 (centres unmarked) [1-43]
chromatographic logP [5]: 5.3

CC(NC(=S)N1CCOC1=NC1Cc2ccccc2C1)c1ccccc1Cl (centres unmarked) [1-44]
chromatographic logP [5]: 5.2

CC(NC(=S)N1CCOC1=NC1Cc2ccccc2C1)c1cccc(Cl)c1 (centres unmarked) [1-45]
chromatographic logP [5]: 5.3
activity (mortality in %) [4]: ≥ 80%

Cc1ccc(CNC(=S)N2CCOC2=NC2Cc3ccccc3C2)cc1 [1-46]
chromatographic logP [5]: 4.8

Fc1ccc(CNC(=S)N2CCOC2=NC2Cc3ccccc3C2)cc1 [1-47]
chromatographic logP [5]: 4.4

COc1ccc(CNC(=S)N2CCOC2=NC2Cc3ccccc3C2)cc1OC [1-48]
chromatographic logP [5]: 3.7

S=C(NCc1ccc(Cl)cc1Cl)N1CCOC1=NC1Cc2ccccc2C1 [1-49]
chromatographic logP [5]: 5.7

S=C(Nc1ccccn1)N1CCOC1=NC1Cc2ccccc2C1 [1-50]
chromatographic logP [5]: 1.6
activity (mortality in %) [7]: ≥ 80%
activity (mortality in %) [4]: ≥ 80%

Fc1ccc2c(c1)CC(N=C1NCCO1)C2 (centres unmarked) [1-64]
PhysData (logP^1) [3, 8]: 0.73

S=C(NCCc1cccc(Cl)c1)N1CCOC1=NC1Cc2ccccc2C1 [1-120]
chromatographic logP [5]: 5.1

c1ccc2c(c1)CC(NC1=NCCS1)C2 [2-1, 2-[2-(2,3-dihydro-1H-inden)-amino]-4,5-dihydrothiazole]
PhysData (logP^1) ([3]; Table I-2): 0.66

CNC(=S)N1CCSC1=NC1Cc2ccccc2C1 [2-2]
PhysData (logP^1) ([3]; Table I-2): 4.05

FC(F)(F)CNC(=S)N1CCSC1=NC1Cc2ccccc2C1 [2-6]
PhysData (logP^1) ([3]; Table I-2): 4.80
logP^1 [3]: 4.8

COCCNC(=S)N1CCSC1=NC1Cc2ccccc2C1 [2-7]
PhysData (logP^1) ([3]; Table I-2): 4.11

CCOC(=O)CNC(=S)N1CCSC1=NC1Cc2ccccc2C1 [2-8]
PhysData (logP^1) ([3]; Table I-2): 4.41

c1ccc2c(c1)CC(NC1=NCCN1)C2 [3-1]
PhysData (logP (HCOOH)) ([3]; Table I-3): 0.52

COCCNC(=S)N1CCNC1=NC1Cc2ccccc2C1 [3-7]
PhysData (logP (HCOOH)) ([3]; Table I-3): 1.46
logP^1 [3]: 1.46

O=C(NCCCl)NC1Cc2ccccc2C1 [4-1]
activity (mortality in %) ([1]; application rate of 100 ppm): ≥ 80%
PhysData (logP (HCOOH)) ([3]; Table 1-4): 1.92
activity (mortality in %) [4]: ≥ 80%

Reference: EP1988080A1, “Insecticidal substituted 2-aminoindanes” (Bayer CropScience AG, priority 2007, dated 2008)
